Results as given in patent publication US20100055218A1, “NOVEL COMPOSITIONS” (priority 2006, published 2010).

Legend:
RAW267.7 [1] = test: Inhibition of nitric oxide production in LPS-activated macrophages (nitrite, Griess reaction); format: cell-based, murine; conditions: Mus musculus, Macrophage; for IC50: read-out: IC50 Nitric Oxide
Experimental: (§1) The anti-inflammatory effects of rosehip and ligustilide, hydroxytyrosol, magnolol, and genistein were evaluated in activated macrophages by determining the inhibition of the synthesis of nitric oxide and/or proinflammatory prostaglandins (PG). PGE2 plays a critical role in the inflammation process, while nitric oxide (NO) is a hallmark of inflammation in various chronic inflammatory diseases including various forms of arthritis, gastro-intestinal diseases and metabolic syndrome.
(§2) Biologically standardized rosehip powder was obtained from Hyben Vital International, Langeland, Denmark, and dissolved in DMSO. Ligustilide and genistein was synthesized by DSM Nutritional Products. Hydroxytyrosol was from Cayman Chemicals or synthesized by DSM Nutritional Products. Magnolol was obtained from Apin Chemicals Ltd, UK. According to the suppliers' data sheet all products were >90% pure and obtained in powder form. […] The anti-inflammatory effects of compounds was tested in cellular assays using a murine macrophage indicator cell line, RAW267.7, which was purchased from American Type Culture Collection, (ATCC) and cultured in DMEM according to the protocol provided by ATCC. Cells (˜50'000/well) were seeded into flat-bottomed microtiter plates and cultured for one day. Cells were then starved in complete medium containing 0.25% fetal calf serum (FCS) (D-025). After overnight culture, medium was removed and replaced by 100 μL of D-025 containing the test compounds at twice the final concentration. Subsequently, 100 μL of D-025 containing 2 μg/ml lipopolysaccharide (LPS) was added (i.e. final LPS concentration of 1 μg/ml) and the cells were cultured for 24 hours. Substances were usually tested in a concentration range from 0.2 to 50 μM in two-fold dilution steps. In the case of rosehip extract, the concentration range was from 3-2000 μg/ml. Concentrations of nitrite which was generated from nitric oxide released by cells were determined by the Griess reaction (see e.g Imai et al. Biochem Biophys Res Comm, 197, 105 [1993]) using sodium nitrite as standard. Briefly, 50 μl of supernatant was mixed with Griess reagent 1 (25 μL) and Griess reagent 2 (25 μL), centrifuged and the optical density at 540 nm determined. PGE2 secreted into the cell culture medium was determined by EIA obtained from Cayman Chemicals (Ann Harbor, Wis., USA) and used according to the manufacturer's instructions. IC50 values were calculated using a […] least-square fitting equation [y=A+((B−A)/(1+((C−x)̂D))] for best-fit curves (Excel fit software program).

RAW267.7 [2] = test: Inhibition of PGE2 production in LPS-activated macrophages (EIA); format: cell-based, murine; conditions: Mus musculus, Macrophage; for IC50: read-out: IC50 PGE2
Experimental: as §1, §2

[3] = 6.25 μmol/L, read-out: % inhibition of NO production
[4] = single substance, LPS 1 μg/ml, 24 hours

| IC50 (RAW267.7 [1]; [4]) [µM] | IC50 (RAW267.7 [2]; [4]) [µM] | SMILES | inhibition at 6.25 µM (RAW267.7 [1]; [3]) [%] | IC50 (RAW267.7 [1]; 24 h) [µM] | inhibition at 6.25 µM (RAW267.7 [1]; read-out: % inhibition of NO production) [%] | IC50 (RAW267.7 [2]; 24 h) [µM] | inhibition at 6.25 µM (RAW267.7 [2]; read-out: % inhibition of PGE2 production) [%] | inhibition at 25 µM (RAW267.7 [1]; 25 μmol/L, read-out: % inhibition of NO production) [%] | inhibition at 12.5 µM (RAW267.7 [1]; 12.5 μmol/L, read-out: % inhibition of NO production) [%] |
| --- | --- | --- | --- | --- | --- | --- | --- | --- | --- |
| 15 ± 1 | 10 ± 2 | CCC/C=C1\OC(=O)C2=C1CCC=C2 [Ligustilide, ligustilide] | 5 |  |  |  |  |  |  |
|  |  | C=CCc1ccc(O)c(-c2cc(CC=C)ccc2O)c1 [Magnolol, 5,5′-Diallyl-2,2′-biphenyldiol] |  | 10 ± 2 | 2 | 2 ± 1 | 57 |  |  |
| 37 ± 2 | 5 ± 1 | O=c1c(-c2ccc(O)cc2)coc2cc(O)cc(O)c12 [Genistein, 4′,5,7-trihydroxyisoflavone] |  |  |  |  |  | 24 |  |
| 28 ± 2 | 24 ± 3 | OCCc1ccc(O)c(O)c1 [OH-Tyrosol, 3,4 dihydroxyphenylethanol] | -5 |  |  |  |  |  | 9 |
